± gives the expanded uncertainty stated by the source.
Settings: Crystal 1

Row | Normal melting temperature | SMILES
1 | 49.76 ± 0.62 °C | CCCCCCCCCCCCCCCCO [1-hexadecanol]
2 | 58.38 ± 0.62 °C | CCCCCCCCCCCCCCCCCCO [1-octadecanol]
3 | 24.07 ± 0.62 °C | CCCCCCCCCCCCO [dodecan-1-ol]

Reference: the NIST ThermoML archive (doi:10.1016/j.jct.2008.03.015)
